Substitutions are numbered along the chain they refer to.
Columns and labels:
[1] = molecular target: T1, RET(KD: 658-1114 G810R) (Homo sapiens, UniProt P07949, G810R); assay: HiBiT-Degradation, RET G810R degradation assay (Nano-Glo HiBiT Lytic), 293T.165 cells; format: cell-based; conditions: for Emax / DC50: 6.0 hours; for Emax: % remaining protein, read-out: 293T.165 RET(KD: 658-1114 G810R) 6.0 hours (Emax); for DC50: half-maximal degradation concentration, read-out: 293T.165 RET(KD: 658-1114 G810R) 6.0 hours (DC50)
T1 construct: 658-1114; expressed in transfected cells; host or cells: 293T.165 (293T cells, generated in-house)
T1 sequence (P07949 658-1114 G810R): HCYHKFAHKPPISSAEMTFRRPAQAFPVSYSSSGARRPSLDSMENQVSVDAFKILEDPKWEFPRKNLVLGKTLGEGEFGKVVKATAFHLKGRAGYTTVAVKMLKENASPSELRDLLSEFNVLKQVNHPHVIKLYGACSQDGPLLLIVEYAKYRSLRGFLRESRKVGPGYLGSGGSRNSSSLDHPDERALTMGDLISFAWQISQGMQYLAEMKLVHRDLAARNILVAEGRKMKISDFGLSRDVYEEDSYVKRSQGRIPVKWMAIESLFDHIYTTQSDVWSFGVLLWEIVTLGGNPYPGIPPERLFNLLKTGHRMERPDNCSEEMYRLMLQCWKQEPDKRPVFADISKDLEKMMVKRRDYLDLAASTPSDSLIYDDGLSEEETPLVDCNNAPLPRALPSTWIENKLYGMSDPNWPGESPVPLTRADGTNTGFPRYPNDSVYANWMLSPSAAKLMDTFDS
Method in brief: (§1)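 HEK293T lines stably expressing HiBiT-tagged RET kinase domain (WT: 293T.144; G810R: 293T.165) were treated with degraders for 6 h in duplicate, 11-point half-log series from 10 μM top dose. Lysis with Nano-Glo HiBiT Lytic reagent, luminescence read; DC50 and Emax (% remaining protein) derived from dose-response curves.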

[2] = molecular target: T2, RET (658-1114) (Homo sapiens, UniProt P07949); assay: HiBiT-Degradation, RET wild-type degradation assay (Nano-Glo HiBiT Lytic), 293T.144 cells; format: cell-based; conditions: for Emax / DC50: 6.0 hours; for Emax: % remaining protein, read-out: 293T.144 RET (658-1114) 6.0 hours (Emax); for DC50: half-maximal degradation concentration, read-out: 293T.144 RET (658-1114) 6.0 hours (DC50)
T2 construct: 658-1114; expressed in transfected cells; host or cells: 293T.144 (293T cells, generated in-house)
T2 sequence (P07949 658-1114): T1 sequence (P07949 658-1114 G810R) with R153G
Method in brief: as §1

| 293T.165 RET(KD: 658-1114 G810R) 6.0 hours (IP) [nM] [1] | Emax [1] [%] | DC50 [1] [nM] | 293T.144 RET (658-1114) 6.0 hours (IP) [nM] [2] | Emax [2] [%] | DC50 [2] [nM] | SMILES |
| --- | --- | --- | --- | --- | --- | --- |
| ++++ (<50 nM = ++++) | < 30 | < 50 | ++++ (<50 nM = ++++) | < 30 | < 50 | CCC1(C(=O)NC2CCC2)CCN(c2ccc(-c3nc(-c4cnn([C@H]5CC[C@H](N6CCC(c7ccc(NC8CCC(=O)NC8=O)cc7)CC6)CC5)c4)cn4ncc(C#N)c34)cn2)CC1 (single isomer, unassigned) [Compound 126, 1-(5-(3-cyano-6-(1-((1r, 4r)-4-(4-(4-((2,6-dioxopiperidin-3-yl)amino)phenyl)piperidin-1-yl)cyclohexyl)-1H-pyrazol-4-yl)pyrazolo[1,5-a]pyrazin-4-yl)pyridin-2-yl)-N-cyclobutyl-4-ethylpiperidine-4-carboxamide] |
| ++++ (<50 nM = ++++) | < 30 | < 50 | ++++ (<50 nM = ++++) | < 30 | < 50 | N#Cc1cnn2cc(-c3cnn([C@H]4CC[C@H](N5CCC(c6ccc(N[C@@H]7CCC(=O)NC7=O)cc6F)CC5)CC4)c3)nc(-c3ccc(N4CCC5(CC4)OCc4cccnc45)nc3)c12 (single isomer, unassigned) [Compound 180] |
| ++++ (<50 nM = ++++) | < 30 | < 50 | ++++ (<50 nM = ++++) | < 30 | < 50 | N#Cc1cnn2cc(-c3cnn([C@H]4CC[C@H](N5CCN(c6c(F)cc(N[C@@H]7CCC(=O)NC7=O)cc6F)CC5)CC4)c3)nc(-c3ccc(N4CCC5(CC4)OCc4cccnc45)nc3)c12 (racemic) [Compound 218, 6-[1-[4-[4-[2,6-difluoro-4-[[rac-(3R)-2,6-dioxo-3-piperidyl]amino]phenyl]piperazin-1-yl]cyclohexyl]pyrazol-4-yl]-4-(6-spiro[5H-furo[3,4-b]pyridine-7,4′-piperidine]-1′-yl-3-pyridyl)pyrazolo[1,5-a]pyrazine-3-carbonitrile] |

Further lines, the compound ahead of its results:

| SMILES | 293T.165 RET(KD: 658-1114 G810R) 6.0 hours (IP) [nM] [1] | Emax [1] [%] | DC50 [1] [nM] | 293T.144 RET (658-1114) 6.0 hours (IP) [nM] [2] | Emax [2] [%] | DC50 [2] [nM] |
| --- | --- | --- | --- | --- | --- | --- |
| COCC1(Cc2ccccn2)CCN(c2ccc(-c3nc(-c4cnn(C5CCN(C(=O)CC6(O)CCN(c7ccc(NC8CCC(=O)NC8=O)cc7F)CC6)CC5)c4)cn4ncc(C#N)c34)cn2)CC1 (stereo not drawn) [Compound 114, 6-[1-[1-[2-[1-[4-[(2,6-dioxo-3-piperidyl)amino]-2-fluoro-phenyl]-4-hydroxy-4-piperidyl]acetyl]-4-piperidyl]pyrazol-4-yl]-4-[6-[4-(methoxymethyl)-4-(2-pyridylmethyl)-1-piperidyl]-3-pyridyl]pyrazolo[1,5-a]pyrazine-3-carbonitrile] | ++++ (<50 nM = ++++) | < 30 | < 50 | ++++ (<50 nM = ++++) | < 30 | < 50 |
| COc1ccc(CN2C3CC2CN(c2ccc(-c4nc(-c5cnn([C@H]6CC[C@H](N7CCN(c8cc(OC)c(NC9CCC(=O)NC9=O)cc8F)CC7)CC6)c5)cn5ncc(C#N)c45)cn2)C3)cn1 (relative stereo) [Compound 167, 6-[1-[4-[4-[4-[(2,6-dioxo-3-piperidyl)amino]-2-fluoro-5-methoxy-phenyl]piperazin-1-yl]cyclohexyl]pyrazol-4-yl]-4-[6-[6-[(6-methoxy-3-pyridyl)methyl]-3,6-diazabicyclo[3.1.1]heptan-3-yl]-3-pyridyl]pyrazolo[1,5-a]pyrazine-3-carbonitrile] | ++++ (<50 nM = ++++) | < 30 | < 50 | ++++ (<50 nM = ++++) | < 30 | < 50 |

From patent publication US12661410B2, “Compounds for targeted degradation of RET” (C4 Therapeutics, Inc., priority 2020, dated 2026)
